Experimental data taken from patent US10766928B2, “Targeted conformationally-constrained kinked endosomal disrupting peptides” (priority 2012, dated 2020).
Converted amounts (≈) assume the structure as drawn. Read-outs that look alike come from different tables or passages of the source. Non-standard residues stand in square brackets, D forms with d. Residues, ends and D or L forms follow the SMILES beside them. *: point of attachment. Pentanoyl(5-NH-cholesteryl) = CC(C)CCC[C@@H](C)[C@H]1CC[C@H]2[C@@H]3CC=C4C[C@@H](NCCCCC(=O)*)CC[C@]4(C)[C@H]3CC[C@]12C; Cholesteryloxycarbonyl = CC(C)CCC[C@@H](C)[C@H]1CC[C@H]2[C@@H]3CC=C4C[C@@H](OC(=O)*)CC[C@]4(C)[C@H]3CC[C@]12C; PEG3 = NCCOCCOCCOCCC(=O)O; Pra = C#CC[C@H](N)C(=O)O; Aib = CC(C)(N)C(=O)O; Ahx = NCCCCCC(=O)O; βAla = NCCC(=O)O

Tests used:
[1] = test system: endosomes of Jurkat lymphocytes; assay: Endosome disruption in Jurkat lymphocytes: release of carboxyfluorescein from disulfide probe Compound 2, flow cytometry; details: for Efficacy (% of 1): % of the effect of compound 1, calculated span of dose-response curve, ± standard deviation
Procedure, shortened: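 Human Jurkat cells treated with compounds plus disulfide probe Compound 2 (2.5 μM) for 14 h at 37 °C. Cytoplasmic release of pH-sensitive fluorophore Compound 3 quantified by flow cytometry. IC50 by non-linear regression; efficacy as % fluorescence change relative to Compound 1 maximum (100%).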

Jurkat lymphocytes = test system: Jurkat lymphocytes
Procedure: The effects of the compounds of the invention on human Juikat leukemia cells were evaluated using flow cytometry-based assays of potency, efficacy, and toxicity. […] Analysis of flow cytometry data by non-linear regression was used to determine IC50 values for potency with the efficacy expressed as a percentage. […] Dose-dependent effects on cellular viability after 48 h at 37° C. in culture were also measured by flow cytometry.
The # represents the compound number in accordance with Tables A, B, and C. Concentrations of compound stock solutions were determined by absorbance measurements at 280 nm. Efficacy was determined as % change in cellular fluorescence relative to the maximal response of Compound 1, defined as 100%. Potencies and efficacies in Jurkat lymphocytes were measured by flow cytometry after treatment of cells with the compounds listed and the fluorescent probe Compound 2 (2.5 μM) for 14 hours. Toxicity to this cell line was determined by flow cytometry analysis of light scattering and counterstaining with PI after treatment for 48 h at 37° C. in culture. […] N.D., not determined.

[2] = Thermodynamic solubility in PBS (pH 7.4); assay type: physicochemical; details: phosphate buffered saline
Source text: Values in parentheses represent 95% confidence intervals. N.D., not determined.
Measurements represent duplicate or more replicates, with active peptides subjected to multiple replicates. ND: not determined. The peptide was non-toxic and soluble in cell culture medium at this concentration.

[3] = read-out: Potency, Table 2, EC50 ± standard deviation, Jurkat lymphocytes, disulfide-linked fluorescent probe (2.5 μM), 14 h
[4] = read-out: Toxicity, Table 3, IC50, Jurkat, 48 h at 37° C., footnote a: non-toxic and soluble in cell culture medium at this concentration
[5] = pH 7.4, Table 3, PBS pH 7.4, 24 h at 22° C., read-out: Solubility
[6] = pH 7.4, Table 1, PBS pH 7.4, 24 hours at 22° C., ±S.D., read-out: Solubility (aq.)

For CC(=O)NC(C)(C)C(=O)NC(C)(C)C(=O)NC(C)(C)C(=O)NC(C)(C)C(=O)N[C@@H](Cc1c[nH]c2ccccc12)C(=O)N[C@@H](Cc1c[nH]c2ccccc12)C(=O)N[C@@H](C)C(=O)N[C@@H](Cc1c[nH]c2ccccc12)C(=O)N[C@@H](Cc1ccc(O)cc1)C(=O)N1CCC[C@H]1C(=O)N1CCC[C@H]1C(=O)N[C@H](C(=O)N[C@H](C(N)=O)C(C)C)C(C)C [Compound 78] (Ac-[Aib][Aib][Aib][Aib]WWAWYPPVV-NH2), the “Efficacy (% of 1)” value ([1]; Table 2, Jurkat, 14 h) was 70 ± 2%, the EC50 [1, 3] was 2.3 ± 0.3 µM and the IC50 (Jurkat lymphocytes; [4]) was greater than 16 µM. The solubility thermodynamic at 24 h [2, 5] was 5 ± 1 µM (≈ 7.92 µg/mL).

Work on C#CC[C@H](NC(=O)[C@H](CCC(=O)O)NC(=O)[C@H](CCC(=O)O)NC(=O)CCNC(=O)CCNC(=O)O[C@H]1CC[C@@]2(C)C(=CC[C@H]3[C@@H]4CC[C@H]([C@H](C)CCCC(C)C)[C@@]4(C)CC[C@@H]32)C1)C(=O)NCCOCCOCCOCCC(=O)NCCOCCOCCOCCC(=O)NC(C)(C)C(=O)NC(C)(C)C(=O)NC(C)(C)C(=O)NC(C)(C)C(=O)N[C@@H](Cc1c[nH]c2ccccc12)C(=O)N[C@@H](Cc1c[nH]c2ccccc12)C(=O)N[C@@H](C)C(=O)N[C@@H](Cc1ccc(O)cc1)C(=O)N[C@@H](Cc1ccc(O)cc1)C(=O)N1CCC[C@H]1C(=O)N1CCC[C@H]1C(=O)N[C@H](C(=O)N[C@H](C(N)=O)C(C)C)C(C)C [Compound 37, R″ = BEEZOOUUUUWWAYYPPVV-CONH2] ({Cholesteryloxycarbonyl-βAla-βAla}-EE[Pra][PEG3][PEG3][Aib][Aib][Aib][Aib]WWAYYPPVV-NH2) yielded an EC50 ([1]; 14 h) of 0.04 µM, an IC50 ([1]; 14 h) of 0.04 µM and an IC50 (Jurkat lymphocytes; 48 h) of 3 µM. For the same compound, the solubility thermodynamic at 24 h [2, 6] was 348 ± 13 µM (≈ 986 µg/mL).

Compound CC(C)CCC[C@@H](C)[C@H]1CC[C@H]2[C@@H]3CC=C4C[C@@H](NCCCCC(=O)NCCC(=O)N[C@@H](CCC(=O)O)C(=O)N[C@@H](CCC(=O)O)C(=O)NCCOCCOCCOCCC(=O)NCCOCCOCCOCCC(=O)NC(C)(C)C(=O)NC(C)(C)C(=O)NC(C)(C)C(=O)NC(C)(C)C(=O)N[C@@H](Cc5ccc(O)cc5)C(=O)N[C@@H](Cc5ccc(O)cc5)C(=O)N[C@@H](C)C(=O)N[C@@H](Cc5ccc(O)cc5)C(=O)N[C@@H](Cc5ccc(O)cc5)C(=O)N5CCC[C@H]5C(=O)N5CCC[C@H]5C(=O)N[C@H](C(=O)N[C@H](C(N)=O)C(C)C)C(C)C)CC[C@]4(C)[C@H]3CC[C@]12C [Compound 28, R = BEEOOUUUUYYAYYPPVV-CONH2] ({Pentanoyl(5-NH-cholesteryl)-βAla}-EE[PEG3][PEG3][Aib][Aib][Aib][Aib]YYAYYPPVV-NH2) has an EC50 ([1]; 14 h) of 0.06 µM, an IC50 (Jurkat lymphocytes; 48 h) of 3 µM and a solubility thermodynamic at 24 h [2, 6] of 63 ± 28 µM (≈ 169 µg/mL).

Compound CC(C)CCC[C@@H](C)[C@H]1CC[C@H]2[C@@H]3CC=C4C[C@@H](NCCCCC(=O)N[C@@H](CCC(=O)O)C(=O)N[C@@H](CCC(=O)O)C(=O)NCCCCCC(=O)NCCCCCC(=O)N[C@@H](C)C(=O)N[C@@H](C)C(=O)N[C@@H](C)C(=O)N[C@@H](Cc5c[nH]c6ccccc56)C(=O)N[C@@H](Cc5c[nH]c6ccccc56)C(=O)N[C@@H](C)C(=O)N[C@@H](Cc5ccc(O)cc5)C(=O)N[C@@H](Cc5c[nH]c6ccccc56)C(=O)N5CCC[C@H]5C(=O)N5CCC[C@H]5C(=O)N[C@H](C(=O)N[C@@H](C)C(N)=O)C(C)C)CC[C@]4(C)[C@H]3CC[C@]12C [Compound 5, R = EEXXAAAWWAYWPPVA-CONH2] ({Pentanoyl(5-NH-cholesteryl)}-EE[Ahx][Ahx]AAAWWAYWPPVA-NH2) has an EC50 ([1]; 14 h) of 0.4 µM, an IC50 (Jurkat lymphocytes; 48 h) of 14 µM and a solubility thermodynamic at 24 h [2, 6] of 10 ± 1 µM (≈ 23.4 µg/mL).

With CC(C)[C@H](NC(=O)[C@@H](NC(=O)[C@@H]1CCCN1C(=O)[C@@H]1CCCN1C(=O)[C@H](Cc1ccc(O)cc1)NC(=O)[C@H](Cc1c[nH]c2ccccc12)NC(=O)[C@H](C)NC(=O)[C@H](Cc1c[nH]c2ccccc12)NC(=O)[C@H](Cc1c[nH]c2ccccc12)NC(=O)C(C)(C)NC(=O)C(C)(C)NC(=O)C(C)(C)NC(=O)C(C)(C)N)C(C)C)C(N)=O [Compound 54] (H-[Aib][Aib][Aib][Aib]WWAWYPPVV-NH2) the “Efficacy (% of max. 1)” value ([1]; Table 1, % change in cellular fluorescence relative to maximal response of Compound 1 (100%), Jurkat, 14 hours) was 100%, the “Efficacy (% of 1)” value ([1]; Table 2, Jurkat, 14 h) was 101 ± 2% and the EC50 ([1]; read-out: Potency (EC50), Table 1, Jurkat lymphocytes, probe Compound 2 (2.5 μM), 14 hours, 95% confidence interval in neighbouring cell) was 3.8 µM. It also gave an EC50 [1, 3] of 5.4 ± 1.6 µM, an IC50 (Jurkat lymphocytes; [4]) greater than 16 µM and a solubility thermodynamic at 24 h [2, 5] of 8 ± 1 µM (≈ 12.3 µg/mL).
